One data set has as its system C. albicans ATCC 10231. As to the kind of experiment: Broth microdilution antimicrobial assay (MIC, IC50). Particulars: Candida albicans, 24 h. The format is cell-based. The procedure: (§1) Reference strains of Staphylococcus aureus (ATCC 25923), Escherichia coli (ATCC 25922), and Candida albicans (ATCC 10231) were used in this study as microbial models. These strains were purchased from the American Type Culture Collection (ATCC); bacterial cultures were routinely grown on 5% blood agar plate, while fungal cultures on Sabouraud Dextrose Agar (Biolife […]., Milan, Italy). […] In short, microbial inocula were prepared at 0.5 McFarland in PBS and, subsequently, bacterial suspensions were diluted 1:200 in Mueller-Hinton broth (Sigma-Aldrich, St. Louis, MO, USA), while fungal inoculum was diluted 1:20 in RPMI-1640 medium (Gibco®, ThermoFisher Scientific Inc., Waltham, MA, USA), containing glucose 2%, 0.3% levo-glutamine buffered to pH 7.0 with 0.165 M 3-(N-morpholino) propanesulfonic acid (MOPS). A total of 100 μL of these microbial suspensions was introduced into a 96-well microplate and incubated with 100 μL of the compounds, two-fold serially diluted in the range of 100-0.19 μM. Positive controls (microbial suspensions in regular media), negative controls (only compounds), and solvent controls (microbial suspensions incubated with DMSO dilutions) were included in the tests. The plate was incubated at 37°C for 24 h, and subsequently the optical density at 630 nm (OD630nm) was spectrophotometrically measured. Experiments were carried out in triplicate in three biological replicates. […] Statistical analysis was carried out by using GraphPad Prism version 9.4.1 for Windows (GraphPad Software, San Diego, California USA, www.graphpad.com). ^a MIC (Minimum Inhibitory Concentration) were determined in vitro by means of a standardized microdilution assay, in compliance with the Clinical and laboratory Standard Institute (CLSI) guidelines (30). Microbial suspensions were prepared at 0.5 McFarland in PBS, then diluted in the media and transferred in a 96 micro-well plate together with the serially 2-fold dilutions of the compounds. After 24h of incubation at 37°C, microbial growths were evaluated by measuring the Optical Density at 600 nm, then percentage values were obtained as relative to the positive controls (microbial suspensions in regular media).
For orientation: Dilution methods test growth across graded concentrations, often in twofold steps.

For a further data set, the system named is E. coli ATCC 25922. The description is as above. The format is cell-based. The note with it: Escherichia coli, 24 h. The procedure: as §1
The next data set deals with S. aureus ATCC 25923. The description is as above. The note with it: Staphylococcus aureus. The data set is classed as cell-based. The procedure: as §1
Data set [1] in a line: Cell viability and proliferation assay (WST8/CCK-8). Particulars: African green monkey, Vero cells (ATCC CCL-81), 48 h treatment, CCK-8; read-out: CC50 [95% CI] Vero cells. The data set is classed as cell-based. The procedure: Vero cell line (ATCC CCL‐81) was selected as a model system to investigate the overall effect of chalcones on non‐malignant mammalian cells. […] For experiments, cells were seeded into 96‐well plates at 10^4 cells/well and incubated at 37°C for 24 h. Following washes with PBS, the cell monolayer was incubated with 100 µL of medium containing the twofold serial dilutions of the compounds. Both untreated cells and cells incubated with medium containing solvent dilutions were included in each experiment as controls. The cell viability was assessed by a WST8‐based assay according to the manufacturer's instructions (CCK‐8, Cell Counting Kit‐8, Dojindo Molecular Technologies, Rockville, MD, USA). After 48 h of incubation, culture medium was removed from each well, the monolayer was washed with PBS, and 100 µL of fresh medium containing 10 µL of CCK‐8 solution was added. Following a 2 h incubation at 37°C, the OD450nm was read, and data were expressed as the percentage of cell viability relative to the untreated controls. The CC50 was obtained on the corresponding dose–response curves generated as previously reported for IC50 values. Experiments were carried out in triplicate in three biological replicates.
(Tetrazolium assays rely on reduction of a dye to a coloured formazan, in cell work by metabolically active cells.)

Data set [2] concerns human red blood cells (hRBCs). The experiment in a line: Hemolytic activity assay. The format is cell-based. The note with it: 25 µM, 90 min, 37°C. The procedure:
The hemolytic activity of some selected compounds was evaluated as the amount of hemoglobin released by the disruption of human red blood cells (hRBCs). For the experiments, fresh hRBCs were collected by centrifugation at 1500g for 10 min, washed three times with PBS, and resuspended to a final concentration of 4% w/v hRBCs in PBS. Then, 100 µL of hRBCs suspension and an equal volume of the twofold dilutions of the antimicrobial peptides were mixed in a 96‐well plate and incubated for 90 min at 37°C. After centrifugation at 1000g for 5 min, the supernatants were transferred into a clear 96‐well plate, and OD405nm was read. Untreated hRBCs (incubated with PBS) and hRBCs incubated with 1% Triton X‐100 were employed as negative and positive controls, respectively. The hemolysis percentage was calculated as [OD405nm (sample) − OD4_05nm (negative control)]/[OD405nm (positive control) − OD405nm (negative control)] × 100. Minimal hemolytic concentrations (MHCs) were defined as the compound concentration causing 10% hemolysis. Three independent experiments were performed in triplicate.

For a further data set, the system named is C. albicans biofilm. As to the kind of experiment: Inhibition of biofilm formation (crystal violet staining). The data set is classed as cell-based, Candida albicans. Particulars: 3.125 µM; 24 h, CV staining. The procedure:
The ability of some selected compounds to inhibit biofilm formation was assessed by established protocols with minor modifications. In short, exponential cultures of S. aureus, E. coli, and C. albicans grown in Tryptic Soy broth (TSB, Sigma‐Aldrich, St. Louis, MO, USA) were adjusted to a final density of 10^5 CFU/mL. Aliquots of 100 µL of the microbial cultures were transferred to a 96‐well flat‐bottom polystyrene microplate, and then incubated at 37°C for 90 min to promote bacterial adhesion. Thereafter, wells were slowly rinsed with PBS to remove nonattached cells, and 100 µL of TSB supplemented with 1% glucose containing the twofold serial dilutions of the compounds was added. After incubation at 37°C for 24 h, the free‐floating cells were removed, and the biofilms were carefully washed with PBS. The biomass was quantified by a standardized crystal violet (CV) staining. Briefly, 100 µL of CV solution (0.1% in water) was added to each well containing a completely air‐dried biofilm, and incubated for 30 min at 37°C. […] Finally, the colored supernatants were transferred to a new microplate, and the OD550nm was measured. The percentage inhibition of biofilm formation in the different experimental conditions was calculated relative to the biofilm mass formed in the absence of compounds (positive control).

The structures appear in SMILES notation.

We go through one compound from PMC12066977, “Alkyl Tail Variation on Chalcone‐Based Quaternary Pyridinium Salts as Rule‐of‐Thumb for Antimicrobial Activity” (Archiv Der Pharmazie, 2025).

By IC50 is commonly meant the point on the concentration scale where inhibition reaches its midpoint. By MIC is commonly meant the lowest concentration that inhibits growth of the organism. A higher MIC goes with a need for much substance. The CC50 is the concentration giving 50% cytotoxicity. Regarding `C#CCOc1ccc(C(=O)/C=C/c2ccc[n+](CCCCCCCCCCCCCC)c2)c(OCC#C)c1.[Br-]` [Compound 6, (E)‐3‐{3‐[2,4‐Bis(prop‐2‐yn‐1‐yloxy)phenyl]‐3‐oxoprop‐1‐en‐1‐yl}‐1‐tetradecylpyridin‐1‐ium bromide], the IC50 with C. albicans ATCC 10231 (ATCC10231, 50% growth inhibition, read-out: IC50 [95% confidence interval] Candida albicans) stood at 1.32 µM; with E. coli ATCC 25922 (ATCC25922, 50% growth inhibition, read-out: IC50 [95% confidence interval] Escherichia coli), 36.3 µM; with S. aureus ATCC 25923 (ATCC25923, 50% growth inhibition, 24 h, read-out: IC50 [95% confidence interval] Staphylococcus aureus) it was 1.3 µM. Moreover, the MIC in the data set on C. albicans ATCC 10231 (ATCC10231, broth microdilution, 37°C) came to 1.56 µM; in the data set on E. coli ATCC 25922 (ATCC25922, broth microdilution, 37°C), 50 µM; against S. aureus ATCC 25923 (ATCC25923, 24 h, broth microdilution, 37°C), 3.12 µM. In addition, in data set [1], the CC50 at 48 h was 6.16 µM. The hemolytic activity in data set [2] is 88.7%. The “reduction in C. albicans biofilm formation” value with C. albicans biofilm was determined as 68.3%.
